Assay results taken from patent publication US20240316023A1, “BENEDIN, PIPERIDINE, 2-BENZHYDRYL-3-HYDROXY-N-METHYL-, HYDROCHLORIDE AND DERIVATIVES THEREOF FOR USE IN TREATING KLEINE-LEVIN SYNDROME” (priority 2021, published 2024).

Tests used:
[1] = tested on: patients with frequent episodes of KLS; conditions: compared to rest of stimulants; cited from earlier work
[2] = tested on: Mice, C57BL/6J, male; experiment: Novel object recognition (NOR) test, long-term memory; format: in vivo; conditions: donepezil 2 mg/kg i.p.; 3-days interval
Experimental: Long-term episodic memory was tested in the NOR test, using a 3-days interval between the acquisition session (called sample trial) and the retention session (called choice trial). This method allows to detect an improvement of memory in the natural forgetting condition:
The test was carried out in circular boxes (30 cm diameter, 40 cm high). The objects to be discriminated (L≈1≈h≈3-4 cm) differed in both color and shape and were referred as yellow duck and blue lego. They were fixed with a magnet to the floor of the boxes at 5 cm of the wall, 20 cm distant. Apparently, they have no natural significance for mice and they have never been associated with a reinforcement. In order to rule out the possibility of scent traces left on the objects and therefore the dependency of the recognition capacity of mice on the olfactory cue, the objects and the ground of the box were washed with an odorless disinfectant (Sanicid® diluted in water) and dried between each trial. A camcorder was fixed to the ceiling above the box to record the animals' activity. The experiment was analyzed blindly at a later time.
On the week before the test, animals were handled by the experimenter in charge of the experiment in order to be not stressed at the time of testing. For this purpose, the experimenter placed a small amount of litter, and then the mouse on its hand. […] The NOR test was completed over five days (see FIG. 1): • Day 1: Habituation trial. Animals were individually placed for a 15-min free exploration session in empty open boxes. • Day 2. Treatment administration and sample trial. […] They were individually placed 30 min after in the apparatus for a 6-min session with two identical objects (Duck, 50% of animals or Lego, 50% of animals). • […]. […]. The mice were individually placed for a 6-min session in the apparatus with two objects (Duck and Lego), one of the objects presented in sample trials (termed as familiar objects) and a novel object (Lego, 50% of animals or Duck, 50% of animals).
The sample and choice trials were recorded with the camera located above the apparatus. The time spent by mice in exploring the objects was measured during the sample trial and the choice trial.
Exploration of an object was defined as follows: directing the nose to the object at a distance≤2 cm and/or touching it with the nose or forelimbs: turning around or biting the object, or sitting on the object were not considered as exploratory behavior.
Data recorded: • L=exploration time of the left object in the sample trial. • R=exploration time of the right object in the sample trial. • N=exploration time of the new object in the choice trial. • F=exploration time of the familiar object in the choice trial. Object recognition task indices include the following parameters: • Exploration indices: • ST=L+R=exploration time (left object+right object) in the sample trial. • CT=N+F=exploration time (new object+familiar object) in the choice trial. • Two memory indices: • N−F=difference of exploration time between the new object and the familiar object in the choice trial.
Statistical analyses: • Read-outs: DI, N−F, ST, CT, N, F • Unpaired Student's t test: Donep 2 group vs. Control group. • One-way ANOVA, Dunnett test: • Benedin groups vs. Control group. • Benedin groups vs. Donep 2 group. • Read-outs: DI and N−F, for all groups, paired Student's t test, difference vs. 0. • Body weight: one-way ANOVA.

Compound | response (reducing the number of episodes) [1] [%] | recognition of the familiar object, i.e. memory [2]
NC12CC3CC(CC(C3)C1)C2 [Amantadine] | 41 | –
Donepezil hydrochloride [reference compound] | – | improved the recognition of the familiar object
